Test results from patent US7683097B2, “Topoisomerase inhibitors” (Propharmacon Inc., priority 2004, dated 2010).

Tests used:
Assay type in all cases: cell-based
MCF-7 [1] = assay: Cell proliferation assay, MCF-7; conditions: Homo sapiens, MCF7; MCF-7 cell line, Table II; read-out: Activity (IC50, cell proliferation)
Experimental: The MCF-7 cell line, the MDR cell line, and the MCF-7/ADR cell line were used. Alamar Blue™ was used to quantitate cell viability.
The compounds listed in Table II were prepared using the procedures outlined in the above Examples.

HL-60 = assay: Cell proliferation assay, Leukemia HL-60; conditions: Homo sapiens, read-out: GI50 or IC50, Leukemia HL-60
Experimental: (§1) The compounds listed in Table III were prepared using the procedures outlined in the above Examples.

SK-MEL-2 = assay: Cell proliferation assay, Melanoma SK-MEL-2; conditions: Homo sapiens, read-out: GI50 or IC50, Melanoma SK-MEL-2
Experimental: (§2) The compounds listed in Table IV were prepared using the procedures outlined in the above Examples.

UO-31 = assay: Cell proliferation assay, Renal Cancer UO-31; conditions: Homo sapiens, read-out: GI50 or IC50, Renal Cancer UO-31
Experimental: as §2

H69-AR (MDR) = assay: Cell proliferation assay, SC Lung Cancer H69-AR (MDR); conditions: Homo sapiens, H69AR; read-out: GI50 or IC50, SC Lung Cancer H69-AR (MDR)
Experimental: as §1

OVCAR-3 = assay: Cell proliferation assay, Ovarian Cancer OVCAR-3; conditions: Homo sapiens, read-out: GI50 or IC50, Ovarian Cancer OVCAR-3
Experimental: as §2

HL60-MX1 (MDR) = assay: Cell proliferation assay, Leukemia HL60-MX1 (MDR); conditions: read-out: GI50 or IC50, Leukemia HL60-MX1 (MDR)
Experimental: as §1

SF-268 = assay: Cell proliferation assay, CNS Cancer SF-268; conditions: Homo sapiens, read-out: GI50 or IC50, CNS Cancer SF-268
Experimental: as §1

MES-SA/Dx5 = assay: Cell proliferation assay, Uterine MES-SA/Dx5; conditions: Homo sapiens, read-out: GI50 or IC50, Uterine MES-SA/Dx5
Experimental: as §2

MCF-7 [2] = assay: Cell proliferation assay (panel), Breast Cancer MCF-7; conditions: Homo sapiens, MCF7; read-out: GI50 or IC50, Breast Cancer MCF-7
Experimental: as §2

HCT-15 = assay: Cell proliferation assay, Colon Cancer HCT-15; conditions: Homo sapiens, read-out: GI50 or IC50, Colon Cancer HCT-15
Experimental: as §1

NCI-H460 = assay: Cell proliferation assay, NSC Lung Cancer NCI-H460; conditions: Homo sapiens, read-out: GI50 or IC50, NSC Lung Cancer NCI-H460
Experimental: as §1

PC-3 = assay: Cell proliferation assay, Prostate Cancer PC-3; conditions: Homo sapiens, read-out: GI50 or IC50, Prostate Cancer PC-3
Experimental: as §2

NCI-ADR = assay: Cell proliferation assay, Breast Cancer NCI-ADR; conditions: Homo sapiens, NCI/ADR-RES; read-out: GI50 or IC50, Breast Cancer NCI-ADR
Experimental: as §2

IC50 (MCF-7 [1])	IC50 (SK-MEL-2)	IC50 (UO-31)	IC50 (OVCAR-3)	IC50 (SF-268)	IC50 (MCF-7 [2])	IC50 (HCT-15)	IC50 (NCI-H460)	IC50 (PC-3)	Compound	further results
< 1000 nM									COc1ncc(NC(=O)c2ccc(Cl)c(-c3ccc(-c4ccccc4)cc3)c2)cn1	
1000 to 10000 nM									C=C[S+]([O-])c1ccc(NC(=O)c2ccc(Cl)c(-c3ccc(-c4ccccc4)cc3)c2)cn1 (centres unmarked)	
> 10000 nM									O=C(Nc1cccnc1Cl)c1ccc(Cl)c(-c2ccc(-c3ccccc3)cc2)c1	
	1000 to 25000 nM	≤ 1000 nM	≤ 1000 nM	≤ 1000 nM	≤ 1000 nM	≤ 1000 nM	≤ 1000 nM	≤ 1000 nM	O=C(Nc1cnccn1)c1ccc(Cl)c(-c2ccc(-c3ccccc3)cc2)c1 [Compound 5, 6″-Chloro-[1,1′;4′,1″]terphenyl-3″-carboxylic acid pyrazin-2-ylamide]	IC50 (HL-60): ≤ 1000 nM; IC50 (H69-AR (MDR)): ≤ 1000 nM; IC50 (HL60-MX1 (MDR)): ≤ 1000 nM; IC50 (MES-SA/Dx5): ≤ 1000 nM
	1000 to 25000 nM	1000 to 25000 nM	≤ 1000 nM	≤ 1000 nM	> 25000 nM	≤ 1000 nM	≤ 1000 nM	≤ 1000 nM	COc1ccc(NC(=O)c2ccc(Cl)c(-c3ccc(-c4ccccc4)cc3)c2)cn1 [Compound 8, 6-Chloro-[1,1′;4′,1″]terphenyl-3-carboxylic acid (6-methoxy-pyridin-3-yl)-amide]	IC50 (HL-60): ≤ 1000 nM; IC50 (NCI-ADR): ≤ 1000 nM; IC50 (H69-AR (MDR)): ≤ 1000 nM; IC50 (HL60-MX1 (MDR)): 1000 to 25000 nM; IC50 (MES-SA/Dx5): ≤ 1000 nM
	1000 to 25000 nM	1000 to 25000 nM	≤ 1000 nM	1000 to 25000 nM	≤ 1000 nM	≤ 1000 nM	≤ 1000 nM	≤ 1000 nM	O=C(Nc1ccc(Cl)nc1)c1ccc(Cl)c(-c2ccc(-c3ccccc3)cc2)c1 [Compound 13, 6-Chloro-[1,1′;4′,1″]terphenyl-3-carboxylic acid (6-chloro-pyridin-3-yl)-amide]	
	> 25000 nM	1000 to 25000 nM	1000 to 25000 nM	1000 to 25000 nM	≤ 1000 nM	> 25000 nM	1000 to 25000 nM	1000 to 25000 nM	Cc1ccc(NC(=O)c2ccc(Cl)c(-c3ccc(-c4ccccc4)cc3)c2)cc1 [Compound 20, 6-Chloro-[1,1′;4′,1″]terphenyl-3-carboxylic acid p-tolylamide]	
	1000 to 25000 nM	1000 to 25000 nM	1000 to 25000 nM	1000 to 25000 nM	1000 to 25000 nM	> 25000 nM	1000 to 25000 nM	1000 to 25000 nM	O=C(NC1=NCCS1)c1ccc(Cl)c(-c2ccc(-c3ccccc3)cc2)c1 [Compound 33, 6″-Chloro-[1,1′;4′,1″]terphenyl-3″-carboxylic acid (4,5-dihydro-thiazol-2-yl)-amide]	IC50 (HL-60): 1000 to 25000 nM
	> 25000 nM	1000 to 25000 nM	≤ 1000 nM	≤ 1000 nM	≤ 1000 nM	≤ 1000 nM	≤ 1000 nM	≤ 1000 nM	COc1ccc(NC(=O)c2ccc(Cl)c(-c3ccc(-c4ccccc4)cc3)c2)cc1 [Compound 303, 6″-Chloro-[1,1′;4′,1″]terphenyl-3″-carboxylic acid (4-methoxy-phenyl)-amide]	
	1000 to 25000 nM	1000 to 25000 nM	≤ 1000 nM	≤ 1000 nM	≤ 1000 nM	≤ 1000 nM	≤ 1000 nM	≤ 1000 nM	O=C(Nc1ccc(F)nc1)c1ccc(Cl)c(-c2ccc(-c3ccccc3)cc2)c1 [Compound 338, 6-Chloro-[1,1′;4′,1″]terphenyl-3-carboxylic acid (6-fluoro-pyridin-3-yl)-amide]	

Further lines, the compound ahead of its results:

Compound	IC50 (MCF-7 [1])	IC50 (SK-MEL-2)	IC50 (UO-31)	IC50 (OVCAR-3)	IC50 (SF-268)	IC50 (MCF-7 [2])	IC50 (HCT-15)	IC50 (NCI-H460)	IC50 (PC-3)	further results
COc1ccc(NC(=O)c2ccc(Cl)c(-c3ccc(-c4cccc(O)c4)cc3)c2)cn1	< 1000 nM									
COc1ccc(NC(=O)c2ccc(Cl)c(-c3cccc(O)c3)c2)cn1	< 1000 nM									
COc1ccc(NC(=O)c2ccc(Cl)c(-c3ccc(-c4cccc(S(C)(=O)=O)c4)cc3)c2)cn1	< 1000 nM									
CCN(CC)CCNC(=O)c1ccc(Cl)c(-c2ccc(-c3ccccc3)cc2)c1	< 1000 nM									
COc1ccc(NC(=O)c2ccc(Cl)c(-c3cccc(C(N)=O)c3)c2)cn1	< 1000 nM									
O=C(NCCN1CCCC1)c1cccc(-c2ccc(-c3ccccc3)cc2)c1	1000 to 10000 nM									
O=C(Nc1nnc(C(F)(F)F)s1)c1ccc(Cl)c(-c2ccc(-c3ccccc3)cc2)c1	1000 to 10000 nM									
CS(=O)(=O)c1ccc(-c2cc(C(=O)NC3=NCCS3)ccc2Cl)cc1	1000 to 10000 nM									
O=C(NCCc1c[nH]cn1)C1Cc2ccccc2CN1C(=O)c1ccc(Cl)c(-c2ccc(-c3ccccc3)cc2)c1 (centres unmarked)	> 10000 nM									
CC(C)(C)OC(=O)NOC(=O)c1ccc(Cl)c(-c2ccc(-c3ccccc3)cc2)c1	> 10000 nM									
CCN(C(=O)c1ccc(Cl)c(-c2ccc(-c3ccccc3)cc2)c1)c1ccc2c(c1)OCO2	> 10000 nM									
COc1ccc(NC(=O)c2ccc(Cl)c(-c3ccc(-c4ccccc4)c(F)c3)c2)cn1 [Compound 6, 6″-Chloro-2′-fluoro-[1,1′;4′,1″]terphenyl-3″-carboxylic acid (6-methoxy-pyridin-3-yl)-amide]		1000 to 25000 nM	1000 to 25000 nM	≤ 1000 nM	1000 to 25000 nM	≤ 1000 nM	≤ 1000 nM	≤ 1000 nM	≤ 1000 nM	IC50 (NCI-ADR): ≤ 1000 nM; IC50 (H69-AR (MDR)): ≤ 1000 nM; IC50 (HL60-MX1 (MDR)): ≤ 1000 nM; IC50 (MES-SA/Dx5): ≤ 1000 nM
COc1ccc(NC(=O)c2ccc(Cl)c(-c3ccc(-c4ccncc4)cc3)c2)cn1 [Compound 17, 6-Chloro-4′-pyridin-4-yl-biphenyl-3-carboxylic acid (6-methoxy-pyridin-3-yl)-amide]		≤ 1000 nM	≤ 1000 nM	≤ 1000 nM	≤ 1000 nM	≤ 1000 nM	≤ 1000 nM	≤ 1000 nM	≤ 1000 nM	IC50 (NCI-ADR): ≤ 1000 nM; IC50 (HL60-MX1 (MDR)): ≤ 1000 nM; IC50 (MES-SA/Dx5): ≤ 1000 nM
O=C(NCCN1CCCC1)c1ccc(Cl)c(-c2ccc(-c3ccccc3)cc2)c1 [Compound 26, 6-Chloro-[1,1′;4′,1″]terphenyl-3-carboxylic acid (2-pyrrolidin-1-yl-ethyl)-amide]		1000 to 25000 nM	1000 to 25000 nM	1000 to 25000 nM	1000 to 25000 nM	1000 to 25000 nM	1000 to 25000 nM	1000 to 25000 nM	1000 to 25000 nM	
O=C(NCC(c1cccnc1)N1CCCC1)c1ccc(Cl)c(-c2ccc(-c3ccccc3)cc2)c1 (centres unmarked) [Compound 32, 6-Chloro-[1,1′;4′,1″]terphenyl-3-carboxylic acid (2-pyridin-3-yl-2-pyrrolidin-1-yl-ethyl)-amide]					1000 to 25000 nM	≤ 1000 nM				IC50 (NCI-ADR): 1000 to 25000 nM; IC50 (H69-AR (MDR)): ≤ 1000 nM; IC50 (HL60-MX1 (MDR)): 1000 to 25000 nM; IC50 (MES-SA/Dx5): ≤ 1000 nM
O=C(Nc1ccc(N2CCNCC2)nc1)c1ccc(Cl)c(-c2ccc(-c3ccccc3)cc2)c1 [Compound 36, 6″-Chloro-[1,1′;4′,1″]terphenyl-3″-carboxylic acid (6-piperazin-1-yl-pyridin-3-yl)-amide]						≤ 1000 nM		≤ 1000 nM		IC50 (NCI-ADR): ≤ 1000 nM; IC50 (MES-SA/Dx5): ≤ 1000 nM
COc1ccc(NC(=O)c2ccc(C)c(-c3ccc(-c4ccccn4)cc3)c2)cn1 [Compound 40, 6-Methyl-4′-pyridin-2-yl-biphenyl-3-carboxylic acid (6-methoxy-pyridin-3-yl)-amide]		> 25000 nM		≤ 1000 nM	≤ 1000 nM	≤ 1000 nM	≤ 1000 nM	≤ 1000 nM	≤ 1000 nM	IC50 (H69-AR (MDR)): ≤ 1000 nM; IC50 (HL60-MX1 (MDR)): ≤ 1000 nM; IC50 (MES-SA/Dx5): ≤ 1000 nM
COc1ccc(NC(=O)c2ccc(Cl)c(-c3cccc(-c4ccccc4)c3)c2)cn1 [Compound 68, 6-Chloro-[1,1′;3′,1″]terphenyl-3-carboxylic acid (6-methoxy-pyridin-3-yl)-amide]						≤ 1000 nM		≤ 1000 nM		
O=C(NC(CCc1ccccc1)C(=O)O)c1ccc(Cl)c(-c2cccc(-c3ccccc3)c2)c1 (centres unmarked) [Compound 223, 2-[(6-Chloro-[1,1′;3′,1″]terphenyl-3-carbonyl)-amino]-4-phenyl-butyric acid]					> 25000 nM	> 25000 nM				
O=C(NC(CC1CCCCC1)C(=O)O)c1ccc(Cl)c(-c2cccc(-c3ccccc3)c2)c1 (centres unmarked) [Compound 236, 2-[(6-Chloro-[1,1′;3′,1″]terphenyl-3-carbonyl)-amino]-3-cyclohexyl-propionic acid]					> 25000 nM	> 25000 nM				
